# From patent publication US10294202B2, “Pyrrolidinones as herbicides” (FMC Corporation, priority 2013, dated 2019)
# Columns and labels:
# Assay in all cases: Test E preemergence herbicide test
# Parameters in all cases: key: 0 = no effect, 100 = complete control
# [1] = system: goosegrass; assay type: in vivo, Eleusine indica
# Excerpt: (§1) Seeds of plant species selected from corn (Zea mays), soybean (Glycine max), velvetleaf (Abutilon theophrasti), lambsquarters (Chenopodium album), wild poinsettia (Euphorbia heterophylla), pigweed, palmer (palmer pigweed, Amaranthus palmeri), waterhemp (common waterhemp, Amaranthus rudis), surinam grass (Brachiaria decumbens), crabgrass, large (large crabgrass, Digitaria sanguinalis), crabgrass, Brazil (Brazilian crabgrass, Digitaria horizontalis), panicum, fall (fall panicum, Panicum dichotomiflorum), foxtail, giant (giant foxtail, Setaria faberii), foxtail, green (green foxtail, Setaria viridis), goosegrass (Eleusine indica), johnsongrass (Sorghum halepense), ragweed (common ragweed, Ambrosia elatior), barnyardgrass (Echinochloa crus-galli), sandbur (southern sandbur, Cenchrus echinatus), arrowleaf […] rhombifolia), ryegrass, Italian (Italian ryegrass, Lolium multiflorum), dayflower, VA (Virginia dayflower, Commelina virginica), field bindweed (Convolvulus arvensis), morningglory (Ipomoea coccinea), nightshade (eastern black nightshade, Solanum ptycanthum), kochia (Kochia scoparia), nutsedge, yellow (yellow nutsedge, Cyperus esculentus), cocklebur (common cocklebur, Xanthium strumarium), smartweed (ladysthumb smartweed, Polygonum Persicaria) and beggarticks (hairy beggarticks, Bidens pilosa), were planted into a silt loam soil and treated preemergence with test chemicals formulated in a non-phytotoxic solvent mixture which included a surfactant. Treated plants and controls were maintained in a greenhouse for 21 days, after which time all species were compared to controls and visually evaluated. Plant response ratings, summarized in Table E, are based on a scale of 0 to 100 where 0 is no effect and 100 is complete control. A dash (-) response means no test result.
# [2] = system: morningglory; assay type: in vivo, Ipomoea coccinea
# Method in brief: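 Test chemicals, formulated in a surfactant-containing non-phytotoxic solvent blend, are applied preemergence to seeded silt loam soil. After 21 days in the greenhouse, response is scored visually relative to controls, where 100 means complete control and 0 means no effect.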
# [3] = system: nutsedge, yellow; assay type: in vivo, Cyperus esculentus
# Excerpt: as §1
# [4] = system: panicum, fall; assay type: in vivo, Panicum dichotomiflorum
# Excerpt: as §1
smiles,measurement,setting,value
O=C1NCC(c2ccc(C(F)(F)F)cc2)C1C(=O)Nc1ccc(F)c(F)c1F (stereo not shown) [Compound 232],"Plant response rating, Goosegrass",[1]; 31 g ai/ha,35
same,"Plant response rating, Goosegrass",[1]; 62 g ai/ha,80
same,"Plant response rating, Goosegrass",[1]; 125 g ai/ha,85
same,"Plant response rating, Goosegrass",[1]; 250 g ai/ha,95
same,"Plant response rating, Morningglory",[2]; 31 g ai/ha,0
same,"Plant response rating, Morningglory",[2]; 62 g ai/ha,0
same,"Plant response rating, Morningglory",[2]; 125 g ai/ha,0
same,"Plant response rating, Morningglory",[2]; 250 g ai/ha,35
same,"Plant response rating, Nutsedge, Yellow",[3]; 31 g ai/ha,0
same,"Plant response rating, Nutsedge, Yellow",[3]; 62 g ai/ha,0
same,"Plant response rating, Nutsedge, Yellow",[3]; 125 g ai/ha,0
same,"Plant response rating, Nutsedge, Yellow",[3]; 250 g ai/ha,0
same,"Plant response rating, Panicum, Fall",[4]; 31 g ai/ha,35
same,"Plant response rating, Panicum, Fall",[4]; 62 g ai/ha,50
same,"Plant response rating, Panicum, Fall",[4]; 125 g ai/ha,50
same,"Plant response rating, Panicum, Fall",[4]; 250 g ai/ha,60
